Experimental findings from patent publication US7018654B2, “Pharmaceutical composition containing an active agent in an amino acid copolymer structure” (New River Pharmaceuticals Inc., priority 1999, dated 2006) are described below.

Series [1] concerns cultured human amniocytes. As to conditions: 0.8% solution in alpha-MEM without glutamine, with insulin and transferrin, pH 7.2.
A short description of series [2]: In vitro stability of glutamine by incubation in 0.2 M phosphate buffer at pH 9.0. It is filed as physicochemical. As to conditions: pH 9.0, 37° C., same conditions. The procedure:
The product of Example 2 was tested for stability and compared to monomeric glutamine by incubation in 0.2 M phosphate buffer at pH 9.0 as described by Price and Greenstein (J. Biol. Chem. vol. 180. p. 209, 1949), incorporated herein by reference.

Series [3] can be described thus: Stability of Gln measured by production of free ammonia in 0.2 M phosphate buffer. It is filed as physicochemical.

As to “Glutamic Acid/Glutamine Co-Polymer [Example 19]”, in series [1], the “Growth of cultured cells with no addition of monomeric L-glutamine” value is “support growth of cultured human amniocytes, through multiple passages”.

Take `NC(=O)CC[C@H](N)C(=O)O` [monomeric glutamine, glutamine]: the “Stability of glutamine (result in words)” value in series [2] was “extensive degradation to ammonia and pyrrolidonecarboxylic acid”. Besides, the “Stability of Gln, production of free ammonia (result in words)” value in series [3] was “almost completely de-amidated”.
